Results taken from patent US11883821B2, “Fluidic device for the detection, capture, or removal of a disease material” (Vanderbilt University, priority 2016, dated 2024).

Key:
[1] = tested on: red blood cell; assay type: cell-based, human
Protocol: This process was repeated for the PEGylated device. Red blood cell lysis was then analyzed to determine release of free hemoglobin in plasma. Plasma hemoglobin was measured by according to well-established protocols. Following passage through the device, the blood samples were centrifuged (500×g) and the supernatant was spectrophotometrically analyzed for hemoglobin release using a plate-reader (Tecan, Infinite M1000 Pro) at 451 nm in order to determine percent hemolysis relative to the Triton-X positive control. Triton X-100 (Sigma-Aldrich) was diluted in diH2O to result in a 20 v/v % Triton-X detergent concentration, which served as the positive control. The negative control used was EDTA-anticoagulated whole, human blood that was not flowed through a double spiral microfluidic device (i.e. untreated). Percent of hemoglobin release was calculated according to the following equation: Hemoglobin release (%)=[(Sample451nm−Negative control451nm=)/(Positive control451nm−Negative control451nm)]×100%. Complete blood counts of each sample (i.e. untreated, colistinated device, PEGylated device) were performed by the Vanderbilt University Translational Pathology Shared Resource Core.

[2] = tested on: Acinetobacter baumannii 'Patient 2'; experiment: Colistin MIC by standard agar dilution; assay type: cell-based; settings: colistin-resistant isolate
Protocol: Bacterial cultures (i.e., Acinetobacter baumannii ATCC17978, Colistin-resistant Acinetobacter baumannii 19606R^41. Colistin-resistant Acinetobacter baumannii-Patient 2′. Klebsiella pneumoniae ATCC700603. Bacillus subtilis 1A578 (Bacillus Genetic Stock Center), Staphylococcus aureus ATCC29213) were plated on LB agar (Sigma-Aldrich, Lot #SLBR1403V) and grown overnight at 37° C. Single colonies of each strain were then inoculated in LB broth (IX) (Gibco, Lot #1803272) and grown at 37° C. for 18 hours shaking at 150 rpm. Cell concentrations were measured with OD595 spectrometry (Infinite F500. Tecan).
Colistin minimum inhibitory concentrations (MIC) of bacterial strains were confirmed by standard agar dilution methods. Results were interpreted according to the Clinical and Laboratory Standards Institute susceptibility breakpoints.

Row | Substance | Hemolysis (%) [1] | Colistin MIC [2]
1 | Triton X-100 [Positive control (20 v/v % Triton-X)] | 100% ± 3.08% | –
2 | Colistin | – | >256 µg/mL
